Here are results for 99 compounds from ChEMBL document CHEMBL1121833, “Structure--sweetness relationship of L-aspartyl dipeptide analogues. A receptor site topology” (J Med Chem, 1981).

A short description of the assay: Sweet potency as logarithm of sweet potency (log SP) relative to sucrose. Format: functional.
Consider `CC(C)CC[C@H](C)NC(=O)[C@H](N)CC(=O)O`, for which the Log SP was 1.85.

For the compound `CCC(C)OC(=O)C[C@H](C)NC(=O)[C@H](N)CC(=O)O` (some centres undefined), the Log SP came to 0.6.

In turn, `CCCCC[C@H](C)NC(=O)[C@H](N)CC(=O)O` (stereo in doubt; 10) returned a Log SP of 1.43.

As to `C[C@@H](CCc1ccccc1)NC(=O)[C@H](N)CC(=O)O`, the Log SP turned out to be 0.89.

As to `COC(=O)[C@@H](COC(=O)C(C)C)NC(=O)[C@H](N)CC(=O)O`, the Log SP was found to be 1.65.

As for `CC(C)CC(=O)OC[C@H](CO)NC(=O)[C@H](N)CC(=O)O`, the Log SP stood at 1.3.

In turn, `C[C@@H](COC(=O)C1CCCC1)NC(=O)[C@H](N)CC(=O)O` had a Log SP of 1.7.

In the case of `CCOC(=O)[C@H](CO)NC(=O)[C@H](N)CC(=O)O`, the Log SP was determined as 1.92.

Regarding `CC(C)OC(=O)[C@H](NC(=O)[C@@H](N)CC(=O)O)[C@@H](C)O`, the Log SP came out at 1.93.

Consider `C[C@@H](CC1CCCCC1)NC(=O)[C@H](N)CC(=O)O`, for which the Log SP amounted to 1.57.

In the case of `CCCC(=O)OC[C@H](C)NC(=O)[C@H](N)CC(=O)O`, the Log SP was found to be 1.58.

In the case of `CCCC(O)[C@H](NC(=O)[C@H](N)CC(=O)O)C(=O)OC` (stereo in doubt; 56), the Log SP was 1.16.

The compound `CCCCOC(=O)[C@H](CO)NC(=O)[C@H](N)CC(=O)O` gave a Log SP of 1.75.

In the case of `COC(=O)[C@H](C)NC(=O)[C@H](N)CC(=O)O`, the Log SP turned out to be 1.2.

Turning to `CC(Cc1ccccc1)NC(=O)[C@H](N)CC(=O)O` (some centres undefined), the Log SP was determined as 1.56.

In turn, `CCOC(=O)[C@H](NC(=O)[C@@H](N)CC(=O)O)[C@H](C)O` showed a Log SP of 1.93.

With `CCCC(=O)OC[C@@H](NC(=O)[C@H](N)CC(=O)O)C(C)C`, the Log SP is 0.4.

`CC(CNC(=O)[C@H](N)CC(=O)O)C(=O)OC1CCCC1` (some centres undefined) had a Log SP of 0.88.

Turning to `COC(=O)[C@H](NC(=O)[C@@H](N)CC(=O)O)[C@H](C)O`, the Log SP turned out to be 1.26.

With `COC(=O)[C@H](NC(=O)[C@H](N)CC(=O)O)C(=O)OC1CCC(C)CC1` (some centres undefined), the Log SP is 1.87.

Compound `COC(=O)[C@@H](COC(C)(C)C)NC(=O)[C@H](N)CC(=O)O` came in with a Log SP of 2.15.

Regarding `N[C@H](CC(=O)O)C(=O)NCCc1ccc(F)cc1`, the Log SP amounted to 0.57.

`CCCCOC(=O)[C@H](NC(=O)[C@@H](N)CC(=O)O)[C@@H](C)O` returned a Log SP of 1.41.

On to `COC(=O)[C@H](NC(=O)[C@@H](N)CC(=O)O)[C@@H](C)O`, for which the Log SP was determined as 0.71.

Regarding `CC(C)[C@@H](COC(=O)C1CC1)NC(=O)[C@H](N)CC(=O)O`, the Log SP was determined as 1.22.

Turning to `CCC(=O)OC[C@H](CC)NC(=O)[C@H](N)CC(=O)O`, the Log SP came to 1.48.

`CC(C)OC(=O)[C@H](NC(=O)[C@@H](N)CC(=O)O)[C@H](C)O` yielded a Log SP of 0.91.

Consider `C[C@@H](COC(=O)C1CC1)NC(=O)[C@H](N)CC(=O)O`, for which the Log SP came to 2.18.

In turn, `N[C@H](CC(=O)O)C(=O)NCCC1CCCCC1` had a Log SP of 0.85.

The compound `COC(=O)CC[C@@H](NC(=O)[C@H](N)CC(=O)O)C(=O)OC` showed a Log SP of 2.

Compound `CC(C)COC(=O)[C@H](NC(=O)[C@@H](N)CC(=O)O)[C@@H](C)O` came in with a Log SP of 1.97.

The compound `CCC(CC)OC(=O)[C@@H](NC(=O)[C@H](N)CC(=O)O)C(=O)OC` (stereo in doubt; 199) gave a Log SP of 3.06.

For `CC[C@@H](COC(=O)C1CCC1)NC(=O)[C@H](N)CC(=O)O`, the Log SP is 1.4.

As to `COC(=O)C(NC(=O)[C@@H](N)CC(=O)O)C(=O)OC1CC(C)CC(C)(C)C1` (some centres undefined), the Log SP was 2.76.

Consider `CCOCC[C@H](C)NC(=O)[C@H](N)CC(=O)O`, for which the Log SP came to 1.14.

Take `CCOC(=O)C[C@H](C)NC(=O)[C@H](N)CC(=O)O` (stereo in doubt; 133): the Log SP was 0.88.

For the compound `CCCC(=O)OCCNC(=O)[C@H](N)CC(=O)O`, the Log SP amounted to 0.56.

Regarding `COC(=O)[C@@H](CCCNC(C)=O)NC(=O)[C@H](N)CC(=O)O`, the Log SP was found to be 0.25.

Turning to `C[C@@H](COC(=O)C1CCC1)NC(=O)[C@H](N)CC(=O)O`, the Log SP worked out at 2.24.

In turn, `CCCCC[C@H](C)NC(=O)[C@H](N)CC(=O)O` (stereo in doubt; 12) returned a Log SP of 1.56.

The compound `CC1CC1C(=O)OC[C@H](C)NC(=O)[C@H](N)CC(=O)O` (some centres undefined) yielded a Log SP of 1.68.

As for `CCCOC(=O)[C@H](C)NC(=O)[C@H](N)CC(=O)O`, the Log SP stood at 2.1.

Take `CCC(=O)OC[C@H](CO)NC(=O)[C@H](N)CC(=O)O`: the Log SP amounted to 1.99.

For `COC(=O)[C@@H](CSC(C)C)NC(=O)[C@H](N)CC(=O)O`, the Log SP turned out to be 2.23.

In the case of `CCOC(=O)C(NC(=O)[C@@H](N)CC(=O)O)C(=O)OCC1C2(C)CCC(C2)C1(C)C` (some centres undefined), the Log SP turned out to be 4.05.

`CCOC(=O)[C@H](C)NC(=O)[C@H](N)CC(=O)O` yielded a Log SP of 1.75.

In turn, `CCC(=O)OC[C@H](C)NC(=O)[C@H](N)CC(=O)O` returned a Log SP of 1.86.

`N[C@H](CC(=O)O)C(=O)NCCC(=O)OC1CCCC1` showed a Log SP of 1.16.

Consider `CC(C)CCC(C)NC(=O)[C@H](N)CC(=O)O` (some centres undefined), for which the Log SP is 1.54.

On to `COC(=O)[C@@H](CCC(C)C)NC(=O)[C@H](N)CC(=O)O`, for which the Log SP amounted to 2.11.

As for `COC(=O)[C@H](NC(=O)[C@H](N)CC(=O)O)C(=O)OC1CCCCC1`, the Log SP amounted to 3.14.

`CC(C)COC(=O)[C@H](CO)NC(=O)[C@H](N)CC(=O)O`: the Log SP turned out to be 2.21.

With `CC[C@@H](Cc1ccccc1)NC(=O)[C@H](N)CC(=O)O`, the Log SP was found to be 0.89.

Regarding `CCCOC(=O)[C@H](NC(=O)[C@@H](N)CC(=O)O)[C@H](C)O`, the Log SP came out at 1.51.

For the compound `COC(=O)C[C@H](C)NC(=O)[C@H](N)CC(=O)O`, the Log SP is 0.43.

In turn, `CCCCC(=O)OC[C@H](C)NC(=O)[C@H](N)CC(=O)O` gave a Log SP of 0.6.

`CCC[C@H](NC(=O)[C@H](N)CC(=O)O)C(=O)OC(C)C` showed a Log SP of 1.43.

In the case of `C[C@@H](COC(=O)C(C)(C)C)NC(=O)[C@H](N)CC(=O)O`, the Log SP was 2.28.

In turn, `CC(=O)OC[C@H](C)NC(=O)[C@H](N)CC(=O)O` showed a Log SP of 1.61.

The compound `CCC(C)C(=O)OC[C@H](CO)NC(=O)[C@H](N)CC(=O)O` (some centres undefined) showed a Log SP of 1.21.

Consider `CC(=O)OCCNC(=O)[C@H](N)CC(=O)O`, for which the Log SP was found to be 0.28.

The compound `COC(=O)[C@@H](COC(C)=O)NC(=O)[C@H](N)CC(=O)O` displayed a Log SP of 0.91.

As to `COC(=O)CCCNC(=O)[C@H](N)CC(=O)O`, the Log SP is 0.13.

Regarding `CCCOC(=O)[C@H](NC(=O)[C@@H](N)CC(=O)O)[C@@H](C)O`, the Log SP turned out to be 2.08.

Consider `COC(=O)C(NC(=O)[C@@H](N)CC(=O)O)C(=O)OC1CCCC(C)C1` (some centres undefined), for which the Log SP stood at 3.02.

Compound `N[C@H](CC(=O)O)C(=O)NCCOC(=O)C1CCC1` registered a Log SP of 0.99.

Compound `CCC(C)OC(=O)CCNC(=O)[C@H](N)CC(=O)O` (some centres undefined) gave a Log SP of 0.73.

`CCCCCCC(C)NC(=O)[C@H](N)CC(=O)O` (some centres undefined) displayed a Log SP of 1.17.

Compound `COC(=O)[C@H](CO)NC(=O)[C@H](N)CC(=O)O` gave a Log SP of 1.49.

The compound `CC(C)OC(=O)C(C)CNC(=O)[C@H](N)CC(=O)O` (some centres undefined) came in with a Log SP of 0.18.

Turning to `CCCCCC[C@@H](NC(=O)[C@H](N)CC(=O)O)C(=O)OC`, the Log SP came to 2.07.

For `CCC(CC)OC(=O)CCNC(=O)[C@H](N)CC(=O)O`, the Log SP worked out at 0.6.

`COC(=O)C(C)C[C@H](NC(=O)[C@@H](N)CC(=O)O)C(=O)OC` (some centres undefined) had a Log SP of 1.15.

The compound `CCC(C)[C@@H](NC(=O)[C@@H](N)CC(=O)O)C(=O)OC(C)C` (some centres undefined) displayed a Log SP of 0.53.

`COC(=O)[C@@H](CCCCNC(C)=O)NC(=O)[C@H](N)CC(=O)O` yielded a Log SP of 0.27.

As for `COC(=O)[C@@H](CC(=O)OC(C)(C)C)NC(=O)[C@H](N)CC(=O)O`, the Log SP turned out to be 1.3.

Compound `CCCOC(=O)[C@H](CC)NC(=O)[C@H](N)CC(=O)O` returned a Log SP of 1.86.

In turn, `CCC[C@@H](NC(=O)[C@H](N)CC(=O)O)C(=O)OC` displayed a Log SP of 0.46.

As to `C[C@@H](Cc1ccc(F)cc1)NC(=O)[C@H](N)CC(=O)O`, the Log SP is 1.5.

On to `C=CC(=O)OC[C@H](C)NC(=O)[C@H](N)CC(=O)O`, for which the Log SP came out at 1.85.

For `CCCOC(=O)[C@H](CO)NC(=O)[C@H](N)CC(=O)O`, the Log SP was determined as 2.39.

In turn, `CCCC(=O)OC[C@@H](NC(=O)[C@H](N)CC(=O)O)C(=O)OC` displayed a Log SP of 1.43.

The compound `N[C@H](CC(=O)O)C(=O)N[C@@H](CO)COC(=O)C1CCCC1` displayed a Log SP of 0.92.

In turn, `CCCC[C@H](C)NC(=O)[C@H](N)CC(=O)O` registered a Log SP of 1.6.

`CCOC(=O)C(NC(=O)[C@@H](N)CC(=O)O)C(=O)OC1CCCCC1C` (some centres undefined): the Log SP turned out to be 3.09.

`COC(=O)C(NC(=O)[C@@H](N)CC(=O)O)C(=O)OC1CCCCC1C` (stereo in doubt; 202) returned a Log SP of 3.92.

Regarding `C=C(C)C(=O)OC[C@H](C)NC(=O)[C@H](N)CC(=O)O`, the Log SP worked out at 1.99.

For `C[C@H](O)[C@@H](NC(=O)[C@@H](N)CC(=O)O)C(=O)OC1CCCCC1`, the Log SP is 1.31.

With `COC(=O)[C@H](Cc1ccccc1)NC(=O)[C@@H](N)CC(=O)O`, the Log SP is 2.11.

As to `CC[C@@H](COC(=O)C1CC1)NC(=O)[C@H](N)CC(=O)O`, the Log SP came out at 1.38.

For the compound `C[C@@H](O)[C@@H](NC(=O)[C@@H](N)CC(=O)O)C(=O)OC1CCCCC1`, the Log SP was 1.44.

`CC1CCC1C(=O)OC[C@H](C)NC(=O)[C@H](N)CC(=O)O` (some centres undefined): the Log SP amounted to 2.13.

`C[C@@H](CC(=O)OC(C)(C)C)NC(=O)[C@H](N)CC(=O)O` had a Log SP of 0.68.

For `COC(=O)C(NC(=O)[C@@H](N)CC(=O)O)C(=O)OC1C(C)CCCC1C` (some centres undefined), the Log SP amounted to 4.02.

Take `CC[C@H](NC(=O)[C@H](N)CC(=O)O)C(=O)OC(C)C`: the Log SP amounted to 2.15.

As to `CC(C)[C@@H](COC(=O)C1CCC1)NC(=O)[C@H](N)CC(=O)O`, the Log SP stood at 1.06.

`C[C@@H](Cc1ccco1)NC(=O)[C@H](N)CC(=O)O` registered a Log SP of 1.16.

`CCCC[C@@H](NC(=O)[C@H](N)CC(=O)O)C(=O)OC` returned a Log SP of 1.49.

Compound `CCC(=O)OC[C@H](COC)NC(=O)[C@H](N)CC(=O)O` showed a Log SP of 1.21.
